What follows are molecules tested against T1, human Fatty Acid Synthase (Homo sapiens, UniProt P49327) (assay: Human FAS enzyme assay (decrease in NADPH fluorescence)). Conditions: % inhibition at a concentration of 100 μmolar.
T1 construct: made in house
Type: biochemical
Summary of the method: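 In-house human FAS was preincubated with compound and NADPH for 15 min at room temperature in 0.1 M Tris pH 7.5 with EDTA, glutathione and BSA. Malonyl CoA and acetyl CoA (500 μM and 150 μM in the added mix) were then added for 60 min. IC50 came from time-zero-subtracted NADPH fluorescence (340/460 nm).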

T1 sequence (P49327 whole entry): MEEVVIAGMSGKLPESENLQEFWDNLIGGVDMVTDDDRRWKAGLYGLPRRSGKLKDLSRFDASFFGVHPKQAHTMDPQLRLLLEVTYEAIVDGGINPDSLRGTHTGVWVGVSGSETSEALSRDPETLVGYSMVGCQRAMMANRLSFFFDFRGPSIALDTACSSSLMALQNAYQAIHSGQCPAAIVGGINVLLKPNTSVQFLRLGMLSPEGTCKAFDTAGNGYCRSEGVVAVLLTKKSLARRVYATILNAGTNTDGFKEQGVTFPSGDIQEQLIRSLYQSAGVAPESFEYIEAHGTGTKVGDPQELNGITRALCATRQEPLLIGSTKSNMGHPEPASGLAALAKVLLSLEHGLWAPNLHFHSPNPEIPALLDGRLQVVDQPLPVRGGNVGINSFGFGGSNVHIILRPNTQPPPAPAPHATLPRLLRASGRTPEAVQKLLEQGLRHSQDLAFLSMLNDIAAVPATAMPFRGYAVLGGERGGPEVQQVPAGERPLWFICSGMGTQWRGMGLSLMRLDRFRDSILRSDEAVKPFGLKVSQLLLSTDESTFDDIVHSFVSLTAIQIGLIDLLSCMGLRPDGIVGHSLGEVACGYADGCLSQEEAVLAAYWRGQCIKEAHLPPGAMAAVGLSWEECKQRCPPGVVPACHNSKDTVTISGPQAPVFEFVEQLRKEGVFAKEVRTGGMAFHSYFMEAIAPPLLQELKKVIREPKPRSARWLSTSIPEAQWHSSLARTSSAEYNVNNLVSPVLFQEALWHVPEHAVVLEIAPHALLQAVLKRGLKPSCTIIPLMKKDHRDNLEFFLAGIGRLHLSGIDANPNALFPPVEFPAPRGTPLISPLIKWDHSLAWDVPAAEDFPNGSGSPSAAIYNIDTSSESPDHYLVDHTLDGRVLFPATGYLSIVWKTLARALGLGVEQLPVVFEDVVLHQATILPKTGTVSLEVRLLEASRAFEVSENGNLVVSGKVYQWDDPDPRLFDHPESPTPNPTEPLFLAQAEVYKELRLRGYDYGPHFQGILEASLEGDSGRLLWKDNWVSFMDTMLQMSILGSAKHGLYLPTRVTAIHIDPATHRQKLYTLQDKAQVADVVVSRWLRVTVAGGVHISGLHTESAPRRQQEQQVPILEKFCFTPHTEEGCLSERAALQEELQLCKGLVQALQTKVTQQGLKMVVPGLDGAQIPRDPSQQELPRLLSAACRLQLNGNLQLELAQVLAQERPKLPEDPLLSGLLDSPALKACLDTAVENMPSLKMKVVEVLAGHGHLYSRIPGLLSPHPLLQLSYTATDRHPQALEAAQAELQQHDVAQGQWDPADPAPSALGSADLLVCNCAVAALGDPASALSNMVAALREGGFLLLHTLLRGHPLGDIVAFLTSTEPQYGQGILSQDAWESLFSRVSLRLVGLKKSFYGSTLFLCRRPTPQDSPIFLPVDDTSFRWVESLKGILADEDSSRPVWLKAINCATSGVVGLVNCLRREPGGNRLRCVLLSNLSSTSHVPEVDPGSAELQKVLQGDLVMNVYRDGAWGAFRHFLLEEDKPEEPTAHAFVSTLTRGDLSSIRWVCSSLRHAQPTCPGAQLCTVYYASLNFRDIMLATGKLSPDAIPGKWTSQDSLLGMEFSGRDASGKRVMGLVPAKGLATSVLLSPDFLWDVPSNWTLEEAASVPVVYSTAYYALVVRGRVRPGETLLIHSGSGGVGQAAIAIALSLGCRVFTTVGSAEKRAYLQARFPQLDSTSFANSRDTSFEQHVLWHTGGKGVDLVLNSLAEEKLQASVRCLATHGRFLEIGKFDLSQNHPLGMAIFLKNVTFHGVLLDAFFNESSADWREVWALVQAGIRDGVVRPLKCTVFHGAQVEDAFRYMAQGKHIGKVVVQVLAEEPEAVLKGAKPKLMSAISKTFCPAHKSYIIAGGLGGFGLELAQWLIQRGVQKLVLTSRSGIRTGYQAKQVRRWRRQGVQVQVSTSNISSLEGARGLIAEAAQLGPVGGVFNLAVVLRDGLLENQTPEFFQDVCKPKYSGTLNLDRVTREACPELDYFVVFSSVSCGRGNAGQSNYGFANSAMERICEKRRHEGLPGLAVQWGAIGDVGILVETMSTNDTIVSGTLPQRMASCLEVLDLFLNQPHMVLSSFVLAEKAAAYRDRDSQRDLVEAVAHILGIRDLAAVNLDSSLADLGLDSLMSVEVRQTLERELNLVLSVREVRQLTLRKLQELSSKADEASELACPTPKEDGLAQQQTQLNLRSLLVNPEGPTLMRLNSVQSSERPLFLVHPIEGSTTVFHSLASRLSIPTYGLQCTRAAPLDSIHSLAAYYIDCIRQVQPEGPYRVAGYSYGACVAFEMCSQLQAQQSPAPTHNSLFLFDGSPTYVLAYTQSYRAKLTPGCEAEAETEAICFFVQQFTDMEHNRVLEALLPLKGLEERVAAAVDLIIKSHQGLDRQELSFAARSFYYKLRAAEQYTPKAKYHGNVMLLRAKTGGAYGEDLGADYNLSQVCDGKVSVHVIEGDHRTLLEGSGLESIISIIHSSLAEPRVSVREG

Row | SMILES | inhibition at 100 µM
1 | Cc1ccc(C(=O)N2CCC(c3ccc(C#N)cc3)CC2)cc1NC(=O)NCC1CCN(C)C1 (stereo not shown) [Example 268, 1-[5-[4-(4-cyanophenyl)piperidine-1-carbonyl]-2-methyl-phenyl]-3-[(1-methylpyrrolidin-3-yl)methyl]urea] | 90.1%
2 | Cc1ccc(C(=O)N2CCC(c3ccc(C#N)cc3)CC2)cc1NC(=O)NCc1ncco1 [Example 269, 1-[5-[4-(4-cyanophenyl)piperidine-1-carbonyl]-2-methyl-phenyl]-3-(1,3-oxazol-2-ylmethyl)urea] | 89.9%
3 | Cc1ccc(C(=O)N2CCC(c3ccc(C#N)cc3)CC2)cc1NC(=O)NCCN(C)C(=O)C(C)C [Example 271, N-[2-[[5-[4-(4-cyanophenyl)piperidine-1-carbonyl]-2-methyl-phenyl]carbamoylamino]ethyl]-N, 2-dimethyl-propanamide] | 93.4%
4 | CCS(=O)(=O)N(C)CCNC(=O)Nc1cc(C(=O)N2CCC(c3ccc(C#N)cc3)CC2)ccc1C [Example 272, 3-[5-[4-(4-cyanophenyl)piperidine-1-carbonyl]-2-methyl-phenyl]-1-[2-(ethylsulfonyl-methyl-amino)ethyl]urea] | 93.9%
5 | CC(=O)NCCCNC(=O)Nc1cc(C(=O)N2CCC(c3ccc(C#N)cc3)CC2)ccc1C [Example 273, N-[3-[[5-[4-(4-cyanophenyl)piperidine-1-carbonyl]-2-methyl-phenyl]carbamoylamino]propyl]acetamide] | 87%
6 | Cc1ccc(C(=O)N2CCC(c3ccc(C#N)cc3)CC2)cc1NC(=O)NCCCNC(=O)C(C)C [Example 274, N-[3-[[5-[4-(4-cyanophenyl)piperidine-1-carbonyl]-2-methyl-phenyl]carbamoylamino]propyl]-2-methyl-propanamide] | 86%
7 | Cc1ccc(NC(=O)NCCCS(C)(=O)=O)cc1C(=O)N1CCC(c2ccc(C#N)cc2)CC1 [Example 278, 1-[3-[4-(4-cyanophenyl)piperidine-1-carbonyl]-4-methyl-phenyl]-3-(3-methylsulfonylpropyl)urea] | 95.8%
8 | Cc1ccc(C(=O)N2CCC(c3ccc(C#N)cc3)CC2)cc1NC(=O)NC1CCCN(C(=O)OC(C)(C)C)C1 (stereo not shown) [Example 279, tert-butyl 3-[[5-[4-(4-cyanophenyl)piperidine-1-carbonyl]-2-methyl-phenyl]carbamoylamino]piperidine-1-carboxylate] | 99.4%
9 | N#Cc1ccc(C2CCN(C(=O)c3ccc(C(F)(F)F)c(NC(=O)NCc4ccccc4)c3)CC2)cc1 [Example 280, 1-benzyl-3-[5-[4-(4-cyanophenyl)piperidine-1-carbonyl]-2-(trifluoromethyl)phenyl]urea] | 90.6%
10 | Cc1ccc(C(=O)N2CCC(c3ccc(C#N)cc3)CC2)cc1NC(=O)NC1CCCNC1 (stereo not shown) [Example 286, 1-[5-[4-(4-cyanophenyl)piperidine-1-carbonyl]-2-methyl-phenyl]-3-(3-piperidyl)urea] | 99.6%
11 | Cc1ccc(C(=O)N2CCC(c3ccc(C#N)cc3)CC2)cc1NC(=O)NCC1CC1 [Example 288, 1-[5-[4-(4-cyanophenyl)piperidine-1-carbonyl]-2-methyl-phenyl]-3-(cyclopropylmethyl)urea] | 99.8%
12 | Cc1ccc(C(=O)N2CCC(c3ccc(C#N)cc3)CC2)cc1NC(=O)NCc1cc[nH]n1 [Example 289, 1-[5-[4-(4-cyanophenyl)piperidine-1-carbonyl]-2-methyl-phenyl]-3-(1H-pyrazol-3-ylmethyl)urea] | 91.2%
13 | Cc1ccc(C(=O)N2CCC(c3ccc(C#N)cc3)CC2)cc1NC(=O)NCc1ccn(C)n1 [Example 290, 1-[5-[4-(4-cyanophenyl)piperidine-1-carbonyl]-2-methyl-phenyl]-3-[(1-methylpyrazol-3-yl)methyl]urea] | 102%
14 | Cc1ccc(C(=O)N2CCC(c3ccc(C#N)cc3)CC2)cc1NC(=O)NCc1ncccn1 [Example 291, 1-[5-[4-(4-cyanophenyl)piperidine-1-carbonyl]-2-methyl-phenyl]-3-(pyrimidin-2-ylmethyl)urea] | 89.6%
15 | Cc1cc(CNC(=O)Nc2cc(C(=O)N3CCC(c4ccc(C#N)cc4)CC3)ccc2C)[nH]n1 [Example 292, 1-[5-[4-(4-cyanophenyl)piperidine-1-carbonyl]-2-methyl-phenyl]-3-[(5-methyl-2H-pyrazol-3-yl)methyl]urea] | 95.6%
16 | Cc1ccc(C(=O)N2CCC(c3ccc(C#N)cc3)CC2)cc1NC(=O)NCc1cnccn1 [Example 293, 1-[5-[4-(4-cyanophenyl)piperidine-1-carbonyl]-2-methyl-phenyl]-3-(pyrazin-2-ylmethyl)urea] | 92.5%

The remaining lines, values ahead:

Row | inhibition at 100 µM | SMILES
17 | 106% | CC(=O)N1CC[C@@H](NC(=O)Nc2cc(C(=O)N3CCC(c4ccc(C#N)cc4)CC3)ccc2C)C1 [Example 275, 3-[(3R)-1-acetylpyrrolidin-3-yl]-1-[5-[4-(4-cyanophenyl)piperidine-1-carbonyl]-2-methyl-phenyl]urea]
18 | 98.2% | CCC(=O)N1CC[C@@H](NC(=O)Nc2cc(C(=O)N3CCC(c4ccc(C#N)cc4)CC3)ccc2C)C1 [Example 276, 3-[5-[4-(4-cyanophenyl)piperidine-1-carbonyl]-2-methyl-phenyl]-1-[(3R)-1-propanoylpyrrolidin-3-yl]urea]
19 | 96.8% | CC(=O)N1CC[C@H](NC(=O)Nc2cc(C(=O)N3CCC(c4ccc(C#N)cc4)CC3)ccc2C)C1 [Example 277, 3-[(3S)-1-acetylpyrrolidin-3-yl]-1-[5-[4-(4-cyanophenyl)piperidine-1-carbonyl]-2-methyl-phenyl]urea]
20 | 99.7% | Cc1ccc(C(=O)N2CCC(c3ccc(C#N)cc3)CC2)cc1NC(=O)NC1CCN(S(C)(=O)=O)CC1 [Example 281, 1-[5-[4-(4-cyanophenyl)piperidine-1-carbonyl]-2-methyl-phenyl]-3-(1-methylsulfonyl-4-piperidyl)urea]
21 | 95% | CC(=O)N1CCC(NC(=O)Nc2cc(C(=O)N3CCC(c4ccc(C#N)cc4)CC3)ccc2C)CC1 [Example 282, 3-(1-acetyl-4-piperidyl)-1-[5-[4-(4-cyanophenyl)piperidine-1-carbonyl]-2-methyl-phenyl]urea]
22 | 101% | Cc1ccc(C(=O)N2CCC(c3ccc(C#N)cc3)CC2)cc1NC(=O)NC1CCN(C(=O)C(C)C)CC1 [Example 283, 1-[5-[4-(4-cyanophenyl)piperidine-1-carbonyl]-2-methyl-phenyl]-3-[1-(2-methylpropanoyl)-4-piperidyl]urea]
23 | 106% | Cc1ccc(C(=O)N2CCC(c3ccc(C#N)cc3)CC2)cc1NC(=O)NC1CCN(C(=O)N(C)C)CC1 [Example 284, 4-[[5-[4-(4-cyanophenyl)piperidine-1-carbonyl]-2-methyl-phenyl]carbamoylamino]-N,N-dimethyl-piperidine-1-carboxamide]
24 | 98.7% | Cc1ccc(C(=O)N2CCC(c3ccc(C#N)cc3)CC2)cc1NC(=O)NC1CCN(S(=O)(=O)N(C)C)CC1 [Example 285, 1-[5-[4-(4-cyanophenyl)piperidine-1-carbonyl]-2-methyl-phenyl]-3-[1-(dimethylsulfamoyl)-4-piperidyl]urea]
25 | 92.4% | Cc1ccc(C(=O)N2CCC(c3ccc(C#N)cc3)CC2)cc1NC(=O)NC1CCC1 [Example 287, 1-[5-[4-(4-cyanophenyl)piperidine-1-carbonyl]-2-methyl-phenyl]-3-cyclobutyl-urea]

Reference: patent publication US20090118332A1, “Therapeutic Agents - 551” (AstraZeneca AB, priority 2006, published 2009)
